Test results reported in patent US20240148821A1, “PHARMACEUTICAL USE OF CYCLIC PEPTIDE COMPOUND” (CHUGAI SEIYAKU KABUSHIKI KAISHA, priority 2021, published 2024).
Numbered stars: 1 amine (or outer) side, 2 acyl side, 3 side chain; on linkers, the order of the positions; unused ones are H or OH. Bridge positions count the residues as written; N and C are the ends. Square brackets hold non-standard residues; d marks the D form. Peptide text beside a SMILES is read from it. * marks the point of attachment. hPhe(3-Cl-4-CF3) = N[C@@H](CCc1ccc(C(F)(F)F)c(Cl)c1)C(=O)O; hPhe(3-F,4-CF3) = N[C@@H](CCc1ccc(C(F)(F)F)c(F)c1)C(=O)O; NMePhe(4-CF3) = CN[C@@H](Cc1ccc(C(F)(F)F)cc1)C(=O)O; NEtPhe(4-Cl) = CCN[C@@H](Cc1ccc(Cl)cc1)C(=O)O; X20 = Cc1cncc(C[C@@H](C(=O)[*:2])N(C)[*:1])c1; NMePhe(4-Cl) = CN[C@@H](Cc1ccc(Cl)cc1)C(=O)O; NMePhe(4-Me) = CN[C@@H](Cc1ccc(C)cc1)C(=O)O; NMePhe(2-Cl) = CN[C@@H](Cc1ccccc1Cl)C(=O)O; NMePhe(3-F) = CN[C@@H](Cc1cccc(F)c1)C(=O)O; Phe(2-OMe) = COc1ccccc1C[C@H](N)C(=O)O; Phe(3-I) = N[C@@H](Cc1cccc(I)c1)C(=O)O; NMe3Pal = CN[C@@H](Cc1cccnc1)C(=O)O; NMeCha = CN[C@@H](CC1CCCCC1)C(=O)O; Ala(cPr) = N[C@@H](CC1CC1)C(=O)O; NMeChg = CN[C@H](C(=O)O)C1CCCCC1; NMeT = CN[C@H](C(=O)O)[C@@H](C)O; hPhe = N[C@@H](CCc1ccccc1)C(=O)O; N(CH2CH2)2CF2 = FC1(F)CCN(*)CC1; NMeD = CN[C@@H](CC(=O)O)C(=O)O; NMeL = CN[C@@H](CC(C)C)C(=O)O; Cba = N[C@@H](CC1CCC1)C(=O)O; NMeV = CN[C@H](C(=O)O)C(C)C; d(β3hA) = C[C@@H](N)CC(=O)O; NMeA = CN[C@@H](C)C(=O)O; NMeAib = CNC(C)(C)C(=O)O; Nle = CCCC[C@H](N)C(=O)O; Piperidide = C1CCN(*)CC1; Pyrrolidide = C1CCN(*)C1; Ac5c = NC1(C(=O)O)CCCC1; Aze = O=C(O)[C@@H]1CCN1; Nva = CCC[C@H](N)C(=O)O; Abu = CC[C@H](N)C(=O)O; Ac3c = NC1(C(=O)O)CC1; Aib = CC(C)(N)C(=O)O; Sar = CNCC(=O)O

Tested on: Human pancreatic cancer cell line AsPC-1 (G12D mutation Kras)
Assay: AsPC-1 cell growth inhibition (AsPC-1 CGI)
Type: cell-based
Conditions: read-out: AsPC-1 cell growth inhibition, 50% growth inhibitory concentration (IC50 value); 96 hours, CellTiter-Glo, values classified in ranges
Procedure: Test compounds were serially dilated with dimethyl sulfoxide, and 200 nL was then dispensed to a U-bottom 96-well plate using Labcyte Echo. […] The cell suspension was dispensed to a. plate containing a test compound at 100 μL per well and incubated at 37° C. in a 5% carbon dioxide gas incubator. 96 hours later, 80 μL of CellTiter-Glo (Promega) was added to each well and fluorescence was measured.

| SMILES | IC50 [nM] |
| --- | --- |
| CC[C@H](C)[C@@H]1NC(=O)[C@H](C(C)C)N(C)C(=O)C[C@@H](C)NC(=O)[C@H](CC(C)C)N(C)C(=O)C2(CCCC2)NC(=O)[C@H](CC(C)C)N(C)C(=O)[C@H](CCc2ccc(C(F)(F)F)c(F)c2)NC(=O)CN(C)C(=O)[C@H](Cc2ccc(Cl)cc2)N(C)C(=O)[C@@H]2CCN2C(=O)CN(C)C1=O [Compound 418] (cyclo([Ac5c][NMeL][d(β3hA)][NMeV]I[Sar][Aze][NMePhe(4-Cl)][Sar][hPhe(3-F,4-CF3)][NMeL])) | > 500 |
| CC(C)C[C@H]1C(=O)N[C@@H](CC2CC2)C(=O)N(C)CC(=O)N(C)CC(=O)N(C)[C@@H](CC2CCCCC2)C(=O)N(C)CC(=O)N[C@@H](CCc2ccc(C(F)(F)F)c(Cl)c2)C(=O)N2CCC[C@H]2C(=O)NC2(CCCC2)C(=O)N(C)[C@@H](C(C)C)C(=O)N(C)[C@H](C(=O)N2CCCCC2)CC(=O)N1C [Compound 421] ([NMeL][Ala(cPr)][Sar][Sar][NMeCha][Sar][hPhe(3-Cl-4-CF3)]P[Ac5c][NMeV][NMeD]-Piperidide; lactam N-11) | > 500 |
| CCCC[C@@H]1NC(=O)[C@H](Cc2cccc(I)c2)NC(=O)CN(C)C(=O)[C@H](Cc2ccc(Cl)cc2)N(CC)C(=O)CN(C)C(=O)CN(C)C(=O)[C@H]([C@@H](C)CC)NC(=O)[C@H](CC(C)C)N(C)C(=O)C[C@@H](C(=O)N2CCCCC2)N(C)C(=O)[C@H](CC(C)C)NC(=O)C(C)(C)N(C)C1=O [Compound 423] ([NMeL]I[Sar][Sar][NEtPhe(4-Cl)][Sar][Phe(3-I)][Nle][NMeAib]L[NMeD]-Piperidide; lactam N-11) | > 500 |
| CC[C@H](C)[C@@H]1NC(=O)[C@H](C)N(C)C(=O)C[C@@H](C(=O)N2CCCC2)N(C)C(=O)[C@H](C(C)C)N(C)C(=O)C(C)(C)NC(=O)[C@H](Cc2ccccc2Cl)N(C)C(=O)[C@H](CCc2ccc(C(F)(F)F)c(Cl)c2)NC(=O)CN(C)C(=O)[C@H](CC2CCCCC2)N(C)C(=O)CN(C)C(=O)CN(C)C1=O [Compound 426] ([NMeA]I[Sar][Sar][NMeCha][Sar][hPhe(3-Cl-4-CF3)][NMePhe(2-Cl)][Aib][NMeV][NMeD]-Pyrrolidide; lactam N-11) | > 500 |
| CC[C@H](C)[C@@H]1NC(=O)[C@H](CC(C)C)N(C)C(=O)C[C@@H](C(=O)N2CCCCC2)N(C)C(=O)[C@H](C2CCCCC2)N(C)C(=O)C2(CCCC2)NC(=O)[C@@H]2CCCN2C(=O)[C@H](CCc2ccc(C(F)(F)F)c(Cl)c2)NC(=O)CN(C)C(=O)[C@H]([C@@H](C)O)N(C)C(=O)CN(C)C(=O)CN(C)C1=O [Compound 427] ([NMeL]I[Sar][Sar][NMeT][Sar][hPhe(3-Cl-4-CF3)]P[Ac5c][NMeChg][NMeD]-Piperidide; lactam N-11) | > 500 |
| CC[C@H](C)[C@@H]1NC(=O)[C@H](C)N(C)C(=O)C[C@@H](C(=O)N2CCCCC2)N(C)C(=O)[C@H](C2CCCCC2)N(C)C(=O)C2(CCCC2)NC(=O)[C@H](Cc2cccnc2)N(C)C(=O)[C@H](CCc2ccc(C(F)(F)F)c(Cl)c2)NC(=O)CN(C)C(=O)[C@H](CC2CCCCC2)N(C)C(=O)[C@@H]2CCCN2C(=O)CN(C)C1=O [Compound 433] ([NMeA]I[Sar]P[NMeCha][Sar][hPhe(3-Cl-4-CF3)][NMe3Pal][Ac5c][NMeChg][NMeD]-Piperidide; lactam N-11) | > 500 |
| CC[C@H](C)[C@@H]1NC(=O)[C@H](CC(C)C)N(C)C(=O)C[C@@H](C(=O)N2CCCCC2)N(C)C(=O)[C@H](CC(C)C)NC(=O)C(C)(C)N(C)C(=O)[C@H](CCc2ccccc2)NC(=O)[C@H](Cc2cccc(I)c2)NC(=O)CN(C)C(=O)[C@H](Cc2ccc(C)cc2)N(C)C(=O)[C@@H]2CCN2C(=O)CN(C)C1=O [Compound 442] ([NMeL]I[Sar][Aze][NMePhe(4-Me)][Sar][Phe(3-I)][hPhe][NMeAib]L[NMeD]-Piperidide; lactam N-11) | > 500 |
| CC[C@H](C)[C@@H]1NC(=O)[C@H](CC(C)C)N(C)C(=O)C[C@@H](C(=O)N2CCCCC2)N(C)C(=O)[C@H](C(C)C)N(C)C(=O)[C@H](C)NC(=O)[C@H](CC(=O)N2CCC(F)(F)CC2)N(C)C(=O)[C@H](CCc2ccc(C(F)(F)F)c(Cl)c2)NC(=O)CN(C)C(=O)[C@H](CC2CCCCC2)N(C)C(=O)CN(C)C(=O)CN(C)C1=O [Compound 444] ([NMeL]I[Sar][Sar][NMeCha][Sar][hPhe(3-Cl-4-CF3)][NMeD](N(CH2CH2)2CF2)A[NMeV][NMeD]-Piperidide; lactam N-11) | > 500 |
| CC[C@H](C)[C@@H]1NC(=O)[C@H](C)N(C)C(=O)C[C@@H](C(=O)N2CCCCC2)N(C)C(=O)[C@H](C(C)C)N(C)C(=O)C2(CCCC2)NC(=O)[C@@H]2CCCN2C(=O)[C@H](CCc2ccc(C(F)(F)F)c(Cl)c2)NC(=O)[C@H]2CCCN2C(=O)[C@H](CC2CCCCC2)N(C)C(=O)[C@@H]2CCN2C(=O)CN(C)C1=O [Compound 447] ([NMeA]I[Sar][Aze][NMeCha][dP][hPhe(3-Cl-4-CF3)]P[Ac5c][NMeV][NMeD]-Piperidide; lactam N-11) | > 500 |
| CC(C)C[C@H]1C(=O)N[C@@H](CC2CCC2)C(=O)N(C)CC(=O)N(C)CC(=O)N(C)[C@@H](CC2CCCCC2)C(=O)N(C)CC(=O)N[C@@H](CCc2ccc(C(F)(F)F)c(Cl)c2)C(=O)N2CCC[C@H]2C(=O)NC2(CCCC2)C(=O)N(C)[C@@H](C(C)C)C(=O)N(C)[C@H](C(=O)N2CCCCC2)CC(=O)N1C [Compound 451] ([NMeL][Cba][Sar][Sar][NMeCha][Sar][hPhe(3-Cl-4-CF3)]P[Ac5c][NMeV][NMeD]-Piperidide; lactam N-11) | > 500 |
| CC[C@@H]1NC(=O)[C@H](Cc2cccc(I)c2)NC(=O)CN(C)C(=O)[C@H](Cc2ccc(Cl)cc2)N(C)C(=O)CN(C)C(=O)CN(C)C(=O)[C@H]([C@@H](C)CC)NC(=O)[C@H](CC(C)C)N(C)C(=O)C[C@@H](C(=O)N2CCCCC2)N(C)C(=O)[C@H](CC(C)C)NC(=O)C(C)(C)N(C)C1=O [Compound 457] ([NMeL]I[Sar][Sar][NMePhe(4-Cl)][Sar][Phe(3-I)][Abu][NMeAib]L[NMeD]-Piperidide; lactam N-11) | > 500 |
| CC[C@H](C)[C@@H]1NC(=O)[C@H](CC(C)C)N(C)C(=O)C[C@@H](C(=O)N2CCCCC2)N(C)C(=O)[C@H](CC(C)C)NC(=O)C(C)(C)N(C)C(=O)[C@H](Cc2ccccc2OC)NC(=O)[C@H](Cc2cccc(I)c2)NC(=O)CN(C)C(=O)[C@H](Cc2ccc(C)cc2)N(C)C(=O)[C@@H]2CCN2C(=O)CN(C)C1=O [Compound 459] ([NMeL]I[Sar][Aze][NMePhe(4-Me)][Sar][Phe(3-I)][Phe(2-OMe)][NMeAib]L[NMeD]-Piperidide; lactam N-11) | > 500 |
| CC[C@H](C)[C@@H]1NC(=O)[C@H](CC(C)C)N(C)C(=O)C[C@@H](C(=O)N2CCCCC2)N(C)C(=O)[C@H](C(C)C)N(C)C(=O)C(C)(C)NC(=O)[C@H](CC(=O)N2CCC(F)(F)CC2)N(C)C(=O)[C@H](CCc2ccc(C(F)(F)F)c(Cl)c2)NC(=O)CN(C)C(=O)[C@H](CC2CCCCC2)N(C)C(=O)CN(C)C(=O)CN(C)C1=O [Compound 463] ([NMeL]I[Sar][Sar][NMeCha][Sar][hPhe(3-Cl-4-CF3)][NMeD](N(CH2CH2)2CF2)[Aib][NMeV][NMeD]-Piperidide; lactam N-11) | > 500 |
| CC[C@H](C)[C@@H]1NC(=O)[C@H](CC(C)C)N(C)C(=O)C[C@@H](C(=O)N2CCCCC2)N(C)C(=O)[C@H](C(C)C)N(C)C(=O)C2(CC2)NC(=O)[C@@H]2CCCN2C(=O)[C@H](CCc2ccc(C(F)(F)F)c(Cl)c2)NC(=O)CN(C)C(=O)[C@H](CC2CCCCC2)N(C)C(=O)CN(C)C(=O)CN(C)C1=O [Compound 468] ([NMeL]I[Sar][Sar][NMeCha][Sar][hPhe(3-Cl-4-CF3)]P[Ac3c][NMeV][NMeD]-Piperidide; lactam N-11) | > 500 |
| CC[C@H](C)[C@@H]1NC(=O)[C@H](CC(C)C)N(C)C(=O)C[C@@H](C(=O)N2CCCCC2)N(C)C(=O)[C@H](C2CCCCC2)N(C)C(=O)C2(CCCC2)NC(=O)[C@H](Cc2cncc(C)c2)N(C)C(=O)[C@H](CCc2ccc(C(F)(F)F)c(Cl)c2)NC(=O)CN(C)C(=O)[C@H](CC2CCCCC2)N(C)C(=O)[C@@H]2CCN2C(=O)CN(C)C1=O [Compound 477] ([NMeL]I[Sar][Aze][NMeCha][Sar][hPhe(3-Cl-4-CF3)][X20][Ac5c][NMeChg][NMeD]-Piperidide; lactam N-11) | > 500 |
| CCCC[C@@H]1NC(=O)[C@H](Cc2cccc(I)c2)NC(=O)CN(C)C(=O)[C@H](Cc2ccc(Cl)cc2)N(C)C(=O)CN(C)C(=O)CN(C)C(=O)[C@H]([C@@H](C)CC)NC(=O)[C@H](CC(C)C)N(C)C(=O)C[C@@H](C(=O)N2CCCCC2)N(C)C(=O)[C@H](CC(C)C)NC(=O)[C@H](Cc2cccc(F)c2)N(C)C1=O [Compound 483] ([NMeL]I[Sar][Sar][NMePhe(4-Cl)][Sar][Phe(3-I)][Nle][NMePhe(3-F)]L[NMeD]-Piperidide; lactam N-11) | > 500 |
| CCC[C@@H]1NC(=O)[C@H](CC(C)C)N(C)C(=O)C[C@@H](C(=O)N2CCCCC2)N(C)C(=O)[C@H](C2CCCCC2)N(C)C(=O)C2(CCCC2)NC(=O)[C@@H]2CCCN2C(=O)[C@H](CCc2ccc(C(F)(F)F)c(Cl)c2)NC(=O)CN(C)C(=O)[C@H](CC2CCCCC2)N(C)C(=O)CN(C)C(=O)CN(C)C1=O [Compound 495] ([NMeL][Nva][Sar][Sar][NMeCha][Sar][hPhe(3-Cl-4-CF3)]P[Ac5c][NMeChg][NMeD]-Piperidide; lactam N-11) | > 500 |
| CCCC[C@@H]1NC(=O)[C@H](Cc2cccc(I)c2)NC(=O)CN(C)C(=O)[C@H](Cc2ccc(Cl)cc2)N(C)C(=O)CN(C)C(=O)CN(C)C(=O)[C@H]([C@@H](C)CC)NC(=O)[C@H](CC(C)C)N(C)C(=O)C[C@@H](C(=O)N2CCCCC2)N(C)C(=O)[C@H](CC(C)C)NC(=O)[C@H](Cc2ccc(C(F)(F)F)cc2)N(C)C1=O [Compound 498] ([NMeL]I[Sar][Sar][NMePhe(4-Cl)][Sar][Phe(3-I)][Nle][NMePhe(4-CF3)]L[NMeD]-Piperidide; lactam N-11) | > 500 |
